Experimental data taken from paper PMC3030623 (Journal of the American Chemical Society, 2010).

Target: T1, Sfp (Bacillus subtilis, UniProt P39135)
T1 sequence (P39135 1-224): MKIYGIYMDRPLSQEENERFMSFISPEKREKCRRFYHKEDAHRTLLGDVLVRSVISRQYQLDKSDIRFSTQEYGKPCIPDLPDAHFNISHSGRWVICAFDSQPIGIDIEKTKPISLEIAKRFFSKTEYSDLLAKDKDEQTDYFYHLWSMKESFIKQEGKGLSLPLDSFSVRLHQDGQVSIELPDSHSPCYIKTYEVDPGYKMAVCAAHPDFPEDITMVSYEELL
Test: ESI-MS of acyl-phosphopantetheine transfer to apo-ACPtcsA
Assay type: biochemical
Conditions: co-substrate apo-ACPtcsA (ACP domain of TcsA)

In the case of `CC/C=C/C(=O)SCCNC(=O)CCNC(=O)[C@H](O)C(C)(C)COP(=O)(O)OP(=O)(O)OC[C@H]1O[C@@H](n2cnc3c(N)ncnc32)[C@H](O)[C@@H]1OP(=O)(O)O` [compound 11, trans-2-pentenyl-CoA], the “ESI-MS of acyl-phosphopantetheine transfer to apo-ACPtcsA” value was “we biochemically converted apo-ACPtcsA to trans-2-pentenyl-ACPtcsA”.
